Test results taken from US20160115540A1, “PRODRUGS AND DRUGS” (Biogen MA Inc., priority 2013, published 2016).
Counter-ions that a name gives are not always drawn.

Test system: kidney
Assay: Transcriptional profiling on Affymetrix GeneChips, single dose, naïve mice: kidney
Format: in vivo, C57BL/6 mice
Conditions: 100 DMF-vs-Veh, 2 h
Experimental: Treated mice were sacrificed at 2, 7, or 12 hours. Tissues (liver, spleen, kidney, jejunum, cortex, hippocampus, striatum and whole blood) were collected and analyzed by transcriptional profiling on mouse Affymetrix GeneChips.
Tissues (liver, spleen, kidney, jejunum, cortex, hippocampus, striatum and whole blood) were collected and analyzed by transcriptional profiling on mouse Affymetrix GeneChips.
Animals were exposed to CO2 and whole blood collected via cardiac puncture. Two 100 μl aliquots of whole blood were collected in 1.5 mL microcentrifuge tubes and snap frozen in liquid nitrogen. Peripheral (liver, spleen, kidney and jejunum) and CNS brain (cerebellum, hippocampus, striatum and cortex) tissues were harvested and snap frozen in liquid nitrogen, with special care taken to collect tissues of similar size and from the same location. All samples were stored at −80° C. until RNA extraction was conducted.
For RNA preparation, frozen tissues were placed in 2 mL RNAse-free 96-well blocks with 1.5 mL QIAzol Lysis Reagent (QIAgen) and a 3.2 mm stainless steel bead (BioSpec Products, Bartlesville, Okla.). Tissues were disrupted for four cycles of 45 seconds in a Mini-Beadbeater (Biospec Products). RNA was extracted in chloroform and the aqueous phase was mixed with an equal volume of 70% ethanol. Extracted RNA was applied to RNeasy 96 plates and purified by the spin method according to the manufacturer's protocol (RNeasy 96 Universal Tissue Protocol, QIAgen, Hilden Germany).
Automated sample amplifications and biotin labelings were carried out using the NuGEN Ovation RNA Amplification system V2 (Cat #3100), Ovation WB reagent (Cat #1300) and Encore Biotin module (Cat #4200) (NuGEN Technologies, Inc, San Carlos, Calif.) according to manufacturer's recommendations using an Arrayplex automated liquid handler (Beckman Coulter, Indianapolis, Ind.). Two micrograms of biotin labeled sscDNA probe were hybridized to Affymetrix GeneChip Affymetrix HT_MG-430_PM plate arrays with modified conditions as described in Allaire et al. Washing and staining of the hybridized arrays were completed as described in the GeneChip Expression analysis technical manual for HT plate arrays using the Genechip® Array Station (Affymetrix, Santa Clara, Calif.) with modifications as described in Allaire et al. The processed GeneChip® plate arrays were scanned using GeneTitan scanner (Affymetrix, Santa Clara, Calif.).
Affymetrix scans were subject to quality control (QC) measures. These tests included a visual inspection of the distribution of raw signal intensities and an assessment of RNA degradation, relative log expression (RLE), and normalized unsealed standard error (NUSE). All sample scans that passed these QC metrics were included in the analysis.
All CEL files were subjected to GC-content-based Robust Multi-array Average (GCRMA) normalization (version 2.20.0) (Irizarry R A, et al. Nucleic Acids Res 2003; 31:e15; Li C, et al. Genome Biol 2001; 2:[…]0032). Expression levels were log (base 2) transformed.
All calculations and analyses were carried out using R (version 2.11.1) and Bioconductor computational tools (Gentleman R. Springer Science+Business Media 2005).

COC(=O)/C=C/C(=O)OC [DMF, dimethyl fumarate]
FC Kbtbd11 1431254_PM_at: −1.77 | FC Kbtbd11 1435465_PM_at: −1.50 | FC Kdm6b 1440346_PM_at: 1.52 | FC LOC100502834 1441010_PM_at: −1.53 | FC LOC100503447 1443908_PM_at: −1.72 | FC Lipg 1421262_PM_at: 2.42 | FC Lipg 1450188_PM_s_at: 1.94 | FC Lonrf3 1429863_PM_at: 4.13 | FC Lonrf3 1436200_PM_at: 3.86 | FC Maff 1418936_PM_at: 2.83 | FC Mdm2 1423605_PM_a_at: 1.51 | FC Mdm2 1427718_PM_a_at: 1.66 | FC Med13 1438725_PM_at: 2.02 | FC Mfsd2a 1428223_PM_at: −2.59 | FC Mir17hg 1428694_PM_at: 2.82 | FC Mpp6 1441546_PM_at: 1.62 | FC Mt1 1451612_PM_at: 2.79 | FC Mtch2 1438842_PM_at: 1.67 | FC Mthfd2 1419253_PM_at: 2.06 | FC Mthfd2 1419254_PM_at: 1.54 | FC Mylip 1424988_PM_at: −1.70 | FC Naa16 1429056_PM_at: 1.71 | FC Napsa 1430744_PM_at: −4.53 | FC Nat2 1449981_PM_a_at: −2.01 | FC Nlrp6 1427369_PM_at: −1.52 | FC Ntn4 1450512_PM_at: −1.67 | FC Nufip2 1435632_PM_at: 1.57 | FC Osgin1 (1424022_PM_at): 4.63 | FC Ovol1 1419051_PM_at: −1.60 | FC P4ha1 1452094_PM_at: 1.56 | FC Paip1 1441955_PM_s_at: 1.61 | FC Pank1 1429813_PM_at: −1.59 | FC Pgd 1423706_PM_a_at: 1.61 | FC Pgd 1438627_PM_x_at: 1.50 | FC Pgd (1436771_PM_x_at): 1.52 | FC Pgd (1437380_PM_x_at): 1.53 | FC Phf23 1428997_PM_at: 1.72 | FC Phip 1438535_PM_at: 1.50 | FC Plekhf2 1423862_PM_at: 1.54 | FC Plk3 1434496_PM_at: 3.14 | FC Polr3e 1429456_PM_a_at: −1.69 | FC Ppm1k 1441988_PM_at: −1.62 | FC Ppp1r15b 1436366_PM_at: 1.72 | FC Pppde1 1425185_PM_at: 1.94 | FC Pppde1 1451621_PM_at: 1.65 | FC Pprc1 1426381_PM_at: 1.74 | FC Prkar2b 1438664_PM_at: 2.43 | FC Prr5 1451463_PM_at: 1.65 | FC Psme4 1443116_PM_at: 1.56 | FC Rg9mtd2 1435035_PM_at: 1.82 | FC Rhebl1 1447818_PM_x_at: −1.57 | FC Rhebl1 1451516_PM_at: −2.01 | FC Riok2 1423481_PM_at: 1.62 | FC Rwdd2a 1428963_PM_at: 2.54 | FC Siah2 1448170_PM_at: 1.71 | FC Slc1a4 1423549_PM_at: 1.52 | FC Slc7a13 1431740_PM_at: −2.60 | FC Slc20a1 1448568_PM_a_at: 2.07 | FC Slc36a2 1436521_PM_at: 4.63 | FC Slc38a2 1426722_PM_at: 2.05 | FC Slc40a1 1448566_PM_at: 1.71 | FC Snhg1 1433674_PM_a_at: 1.62 | FC Snhg1 1433675_PM_at: 1.69 | FC Snx16 1438803_PM_s_at: 1.60 | FC Spry4 1440867_PM_at: 1.71 | FC Spry4 1445669_PM_at: 1.54 | FC Sqstm1 1450957_PM_a_at: 1.69 | FC Srsf7 1436871_PM_at: 1.57 | FC Srxn1 (1419942_PM_at): 1.62 | FC Srxn1 (1426875_PM_s_at): 1.59 | FC Susd3 1428975_PM_at: −1.51 | FC Syn3 1435311_PM_s_at: −1.73 | FC Taf15 1438130_PM_at: 1.59 | FC Them4 1431140_PM_at: 1.80 | FC Tmco6 1451692_PM_at: −1.57 | FC Tmem26 1435409_PM_at: −1.85 | FC Tmem26 (1434583_PM_at): −1.66
